{"source": "patent US10335422B2", "about": "“Small molecules that promote skin regeneration” (International Stem Cell Corporation, priority 2013, dated 2019)", "key": {"EGF": {"system": "EGF", "assay": "High-throughput screening assay for EGF production (ELISA of hDF supernatants)", "format": "cell-based, human", "settings": "3 days of treatment", "experimental": "(§1) For EGF production assay hDFs were plated into 96 well Clear tissue-culture treated plates (Falcon) at 19,000 cells/well in DMEM (Gibco) 1× N2/B27 Supplement (Invitrogen). […] After 3 days of treatment, supernatants were collected and analyzed for EGF content using EGF Human ELISA Kit (Abcam) and with BioTek Synergy 2 Multi-Detection Microplate Reader (see FIG. 1)."}, "Collagen Type 1": {"system": "Collagen Type 1", "assay": "High-throughput screening assay for Collagen Type 1 production (Procollagen Type 1C-Peptide EIA of hDF supernatants)", "format": "cell-based, human", "settings": "3 days of treatment"}, "[1]": {"system": "human dermal fibroblast (hDF)", "assay": "High-throughput proliferation screening assay of human dermal fibroblasts", "format": "cell-based", "settings": "at concentration of 200 nM; 3 days of treatment; DAPI imaging", "experimental": "For the proliferation assay, human dermal fibroblast (hDF) were plated into 96 well Black/Clear bottom tissue-culture treated plates (Corning) at 1,000 cells/well in DMEM (Gibco) 15% FBS (HyClone). […] After 3 days of treatment, cells were fixed and stained with DAPI and analyzed using Roche Cellavista High-Content Imaging System (see FIG. 1)."}, "TGFβ1": {"system": "TGFβ1", "assay": "High-throughput screening assay for TGFβ1 production (ELISA of hDF supernatants)", "format": "cell-based, human", "settings": "3 days of treatment", "experimental": "as §1, with “TGFβ1” for “EGF”"}, "FGF7": {"system": "FGF7", "assay": "High-throughput screening assay for FGF7 production (ELISA of hDF supernatants)", "format": "cell-based, human", "settings": "at concentration of 25 μM; 3 days of treatment", "experimental": "as §1, with “FGF7” for “EGF”"}, "[2]": {"settings": "at concentrations of 25 and 12.5 μM"}}, "note": "Counter-ions that a name gives are not always drawn.", "data": [{"compound": "PSB 06126", "values": [{"measurement": "production level of EGF in hDFs", "setting": "EGF; at concentration of 12.5 (unit not given)", "value": "induced the highest production level"}]}, {"compound": "CN1CCC[C@@H]1CCO[C@](C)(c1ccccc1)c1ccc(Cl)cc1", "note": "[Clemastine fumarate]", "values": [{"measurement": "production level of Collagen Type 1 in hDFs", "setting": "Collagen Type 1; at concentration of 780 nM", "value": "induced the highest production level"}]}, {"compound": "Cl.Cl.Nc1ncnc2nc(-c3ccc(N4CCOCC4)nc3)cc(-c3cccc(Br)c3)c12", "note": "[ABT702 dihydrochloride]", "values": [{"measurement": "proliferation level in hDFs", "setting": "[1]", "value": "induced the highest proliferation level"}]}, {"compound": "Proxyfan Oxalate", "values": [{"measurement": "production level of TGFβ1 in hDFs", "setting": "TGFβ1; at concentration of 24 nM", "value": "induced the highest production level"}]}, {"compound": "CN1Cc2ccccc2[C@@H]2c3cccc4[nH]cc(c34)C[C@H]21", "note": "[CY 208-243]", "values": [{"measurement": "production level of EGF in hDFs", "setting": "EGF; at concentrations of 12.5 μM", "value": "induced the highest production level"}]}, {"compound": "CN1CC(=O)NC1=NC(=O)Nc1cccc(Cl)c1", "note": "[Fenobam]", "values": [{"measurement": "proliferation level in hDFs", "setting": "[1]", "value": "induced the highest proliferation level"}]}, {"compound": "CCCCC[C@H](O)/C=C/[C@H]1[C@H](O)CC(=O)[C@@H]1C/C=C\\CCCC(=O)O", "note": "[Prostaglandin E2]", "values": [{"measurement": "production level of FGF7 in hDFs", "setting": "FGF7", "value": "induced the highest production level"}]}, {"compound": "O=C(O)c1ccc2cc(-c3ccc(O)c(C45CC6CC(CC(C6)C4)C5)c3)ccc2c1", "note": "[CD 437]", "values": [{"measurement": "production level of EGF in hDFs", "setting": "EGF; [2]", "value": "induced the highest production level"}]}, {"compound": "CN(C)C(=O)C(=O)c1cn(C)c2cc(Cl)c(C(=O)N3CCC(Cc4ccc(F)cc4)CC3)cc12", "note": "[SX 011]", "values": [{"measurement": "proliferation level in hDFs", "setting": "[1]", "value": "induced the highest proliferation level"}]}, {"compound": "OCCN(CCO)c1nc(N2CCCCC2)c2nc(N(CCO)CCO)nc(N3CCCCC3)c2n1", "note": "[Dipyridamole]", "values": [{"measurement": "production level of Collagen Type 1 in hDFs", "setting": "Collagen Type 1; at concentration of 390 nM", "value": "induced the highest production level"}]}, {"compound": "O=C1CCc2cc(OCCCCc3nnnn3C3CCCCC3)ccc2N1", "note": "[Cilostazol]", "values": [{"measurement": "production level of Collagen Type 1 in hDFs", "setting": "Collagen Type 1; at concentration of 6.25 μM", "value": "induced the highest production level"}]}, {"compound": "Cc1cc(C)c(S(=O)(=O)Nc2cccc(C(F)(F)F)c2)c(C)c1", "note": "[m-3M3FBS]", "values": [{"measurement": "production level of TGFβ1 in hDFs", "setting": "TGFβ1; at concentration of 24 nM", "value": "induced the highest production level"}]}, {"compound": "CS(=O)(=O)O.N=C(N)SCCc1ccc(OCc2ccc([N+](=O)[O-])cc2)cc1", "note": "[KB-R7943 mesylate]", "values": [{"measurement": "production level of TGFβ1 in hDFs", "setting": "TGFβ1; at concentration of 1.6 μM", "value": "induced the highest production level"}]}, {"compound": "O=C(O)c1ccc(-c2ccc3cc(O)c(C45CC6CC(CC(C6)C4)C5)cc3c2)cc1", "note": "[CD 1530]", "values": [{"measurement": "production level of EGF in hDFs", "setting": "EGF; [2]", "value": "induced the highest production level"}]}]}
